Assay: xn = mol fraction of the nth substance listed
Details: 101 kPa

CCO + CC[n+]1ccn(C)c1.N#C[S-]
x2 = 0
Details	speed of sound [m/s]	viscosity [mPa·s]
283.15 K	1194.7	1.44
313.15 K	1092.2	0.83
323.15 K	1059.1	0.7

CC[n+]1ccn(C)c1.N#C[S-] + CCO
Details	speed of sound, 283.15 K [m/s]	speed of sound, 293.15 K [m/s]	speed of sound, 303.15 K [m/s]	speed of sound, 313.15 K [m/s]	speed of sound, 323.15 K [m/s]	viscosity, 283.15 K [mPa·s]	viscosity, 293.15 K [mPa·s]	viscosity, 303.15 K [mPa·s]	viscosity, 313.15 K [mPa·s]	viscosity, 323.15 K [mPa·s]
x1 = 0.0504	1281.9	1249.4	–	–	1155	1.93	1.58	–	–	0.94
x1 = 0.1001	1345.1	1314.4	1284.3	1254.6	1225.4	2.34	1.91	1.59	1.34	1.14
x1 = 0.2012	1466.4	1438.1	–	1382.8	1355.8	3.49	2.88	–	1.93	1.64
x1 = 0.3003	1560.9	1534	1507.4	1481.3	1455.6	4.8	3.84	3.14	2.63	2.24
x1 = 0.3945	1641	1614.9	1589.2	1563.9	1539.2	6.72	5.3	4.29	3.56	3
x1 = 0.5007	1711	1685.5	1660.4	1635.8	1611.5	9.41	7.24	5.73	4.67	3.91
x1 = 0.6016	1768.2	1743.3	1718.9	–	1671.5	12.82	9.63	7.51	–	4.97
x1 = 0.7018	1805.7	1781.1	1757	–	–	16.95	12.52	9.54	–	–
x1 = 0.8045	–	1813.9	1790	1766.5	1743.5	–	16.42	12.35	9.58	7.66
x1 = 0.8971	–	–	1813.9	–	1767.8	–	–	15.08	–	9.05
x1 = 0.951	1875.9	1851.7	–	1804.6	–	34.19	23.87	–	13	–
x1 = 1	1887.6	1863.4	1839.7	–	1793.9	38.41	26.31	19.03	–	11.1
